According to ChEMBL document CHEMBL1201862, “PubChem BioAssay data set” (2004):
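Each compound was tested at five concentrations against cells in 96-well plates for 48 hours. The concentration for 50% growth inhibition is given as GI50.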 Active and inactive are the calls of the source. Cut-off read from the data, not from the text of the source: active = GI50 up to about 1.1 µM and inactive = higher.

How the values were obtained:
Assay in all cases: growth of human tumour cells (NCI), 48 h
[1] = test system: A498
[2] = test system: ACHN
[3] = test system: CAKI-1
[4] = test system: COLO 205
[5] = test system: HCT-15
[6] = test system: HL-60
[7] = test system: Hs-578T
[8] = test system: IGROV-1
[9] = test system: MDA-MB-435
[10] = test system: Malme-3M
[11] = test system: NCI-H226
[12] = test system: NCI-H460
[13] = test system: OVCAR-8
[14] = test system: PC-3
[15] = test system: RXF 393
[16] = test system: SF-268
[17] = test system: SF-539
[18] = test system: SW-620
[19] = test system: T47D
[20] = test system: TK-10

With `c1cncc(CNCc2cccnc2)c1` as the compound, how does the GI50 [1] read?
Its GI50 is > 100 µM (inactive).

And the GI50 [2]?
The GI50 was > 100 µM (inactive).

What about the GI50 [3] of the same compound?
Its GI50 is > 100 µM (inactive).

What about the GI50 [4] of the same compound?
Its GI50 is > 100 µM (inactive).

What about the GI50 [5] of the same compound?
The GI50 was greater than 100 µM.

And the GI50 [6]?
The GI50 was 3.6 µM (inactive).

And the GI50 [7]?
The GI50 was > 100 µM (inactive).

What about the GI50 [8] of the same compound?
The GI50 was > 100 µM (inactive).

And the GI50 [9]?
The GI50 was > 100 µM (inactive).

What about the GI50 [10] of the same compound?
The GI50 was > 100 µM (inactive).

And the GI50 [11]?
Its GI50 is > 100 µM (inactive).

And the GI50 [12]?
Its GI50 is > 100 µM (inactive).

And the GI50 [13]?
The GI50 was > 100 µM (inactive).

What about the GI50 [14] of the same compound?
The GI50 was > 100 µM (inactive).

And the GI50 [15]?
The GI50 was > 100 µM (inactive).

What about the GI50 [16] of the same compound?
Its GI50 is > 100 µM (inactive).

And the GI50 [17]?
Its GI50 is > 100 µM (inactive).

What about the GI50 [18] of the same compound?
Its GI50 is > 100 µM (inactive).

What about the GI50 [19] of the same compound?
Its GI50 is > 100 µM (inactive).

What about the GI50 [20] of the same compound?
Its GI50 is > 100 µM (inactive).

What does the source list for `Nc1ccc(-c2ccc(Nc3cc(S(=O)(=O)O)c(N)c4c3C(=O)c3ccccc3C4=O)cc2)c(S(=O)(=O)O)c1`?
GI50 [1]: > 100 µM (inactive); GI50 [2]: > 100 µM (inactive); GI50 [3]: > 100 µM (inactive); GI50 [4]: > 100 µM (inactive); GI50 [5]: > 100 µM; GI50 [6]: > 100 µM (inactive); GI50 [7]: > 100 µM (inactive); GI50 [8]: > 100 µM (inactive); GI50 [9]: > 100 µM (inactive); GI50 [10]: > 100 µM (inactive); GI50 [11]: > 100 µM (inactive); GI50 [12]: > 100 µM (inactive); GI50 [13]: > 100 µM (inactive); GI50 [14]: > 100 µM (inactive); GI50 [15]: > 100 µM (inactive); GI50 [16]: > 100 µM (inactive); GI50 [17]: > 100 µM (inactive); GI50 [18]: > 100 µM (inactive); GI50 [19]: > 100 µM (inactive); GI50 [20]: > 100 µM (inactive)

What does the source list for `Cc1ccc(S(=O)(=O)N/N=C2\CC3C4C=CC3C2C4)cc1` (stereo not given)?
GI50 [1]: > 100 µM (inactive); GI50 [2]: > 100 µM (inactive); GI50 [3]: > 100 µM (inactive); GI50 [4]: > 100 µM (inactive); GI50 [5]: > 100 µM; GI50 [6]: > 100 µM (inactive); GI50 [7]: > 100 µM (inactive); GI50 [8]: > 100 µM (inactive); GI50 [9]: > 100 µM (inactive); GI50 [10]: > 100 µM (inactive); GI50 [11]: > 100 µM (inactive); GI50 [12]: > 100 µM (inactive); GI50 [13]: > 100 µM (inactive); GI50 [14]: > 100 µM (inactive); GI50 [15]: > 100 µM (inactive); GI50 [16]: > 100 µM (inactive); GI50 [17]: > 100 µM (inactive); GI50 [18]: > 100 µM (inactive); GI50 [19]: > 100 µM (inactive); GI50 [20]: > 100 µM (inactive)

With `c1ccc2oc(-c3ccc(-c4nc5ccccc5o4)c4c3CC4)nc2c1` as the compound, how does the GI50 [1] read?
The GI50 was > 100 µM (inactive).

What about the GI50 [2] of the same compound?
The GI50 was > 100 µM (inactive).

What about the GI50 [3] of the same compound?
Its GI50 is > 100 µM (inactive).

What about the GI50 [4] of the same compound?
The GI50 was > 100 µM (inactive).

And the GI50 [5]?
The GI50 was greater than 100 µM.

And the GI50 [6]?
The GI50 was > 100 µM (inactive).

And the GI50 [7]?
Its GI50 is > 100 µM (inactive).

What about the GI50 [8] of the same compound?
Its GI50 is > 100 µM (inactive).

And the GI50 [9]?
The GI50 was > 100 µM (inactive).

And the GI50 [10]?
Its GI50 is > 100 µM (inactive).

And the GI50 [11]?
Its GI50 is > 100 µM (inactive).

And the GI50 [12]?
The GI50 was > 100 µM (inactive).

What about the GI50 [13] of the same compound?
The GI50 was > 100 µM (inactive).

And the GI50 [14]?
Its GI50 is > 100 µM (inactive).

And the GI50 [15]?
Its GI50 is > 100 µM (inactive).

And the GI50 [16]?
Its GI50 is > 100 µM (inactive).

What about the GI50 [17] of the same compound?
The GI50 was > 100 µM (inactive).

And the GI50 [18]?
Its GI50 is > 100 µM (inactive).

What about the GI50 [19] of the same compound?
The GI50 was > 100 µM (inactive).

What about the GI50 [20] of the same compound?
Its GI50 is > 100 µM (inactive).

How did the GI50 [1] turn out when `CC[C@H](C)[C@H]1NC(=O)[C@@H](NC(=O)[C@@H](CC(C)C)N(C)CC2CCCN2C(=O)C(C)=O)[C@@H](C)OC(=O)[C@H](Cc2ccc(OC)cc2)N(C)C(=O)C2CCCN2C(=O)[C@H](CC(C)C)NC(=O)[C@@H](C)C(=O)[C@H](C(C)C)OC(=O)C[C@@H]1O` (stereo not given in full) was run?
Its GI50 is 0.00471 µM (active).

And the GI50 [2]?
Its GI50 is 0.00444 µM (active).

And the GI50 [3]?
The GI50 was 0.0221 µM (active).

And the GI50 [4]?
Its GI50 is 0.00293 µM (active).

What about the GI50 [5] of the same compound?
The GI50 was 0.0769 µM.

And the GI50 [6]?
The GI50 was 0.00476 µM (active).

And the GI50 [7]?
The GI50 was 0.00405 µM (active).

And the GI50 [8]?
Its GI50 is < 0.0025 µM (active).

And the GI50 [9]?
Its GI50 is 0.00371 µM (active).

And the GI50 [10]?
The GI50 was 0.00681 µM (active).

What about the GI50 [11] of the same compound?
The GI50 was 0.0152 µM (active).

And the GI50 [12]?
The GI50 was 0.00381 µM (active).

And the GI50 [13]?
The GI50 was 0.00372 µM (active).

What about the GI50 [14] of the same compound?
Its GI50 is 0.00406 µM (active).

And the GI50 [15]?
Its GI50 is < 0.0025 µM (active).

And the GI50 [16]?
Its GI50 is 0.00488 µM (active).

What about the GI50 [17] of the same compound?
Its GI50 is < 0.0025 µM (active).

What about the GI50 [18] of the same compound?
Its GI50 is 0.00409 µM (active).

And the GI50 [19]?
Its GI50 is 0.00344 µM (active).

What about the GI50 [20] of the same compound?
The GI50 was 0.00853 µM (active).
